Legend:
MM1S cells = assay: MTT cell proliferation assay; type: cell-based; settings: Homo sapiens, MM1.S, approximately 64-72 hours
Procedure, shortened: (§1)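 Cells seeded at 5,000-10,000 per well attached overnight, then received eight compound concentrations from 1 nM to 30 μM. Viability was measured by MTT (about 4 h) with OD read at 490 nm. Percent inhibition versus negative control, mostly from duplicates, was reported as mean±SE.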

Z138 cells = assay: MTT cell proliferation assay; type: cell-based; settings: Homo sapiens, Z-138, approximately 64-72 hours
Procedure, shortened: as §1

3T3 cells = assay: MTT cell proliferation assay; type: cell-based; settings: Mus musculus, NIH3T3, approximately 64-72 hours
Procedure, shortened: as §1

COLO 205 xenograft = assay: COLO 205 colorectal carcinoma xenograft model; type: in vivo, mouse
Description: COLO 205 (CCL-222) colorectal cancer cells were obtained from ATCC. These cells were grown in RPMI-1640 medium supplemented with 10% fetal bovine serum, 1% penicillin and streptomycin. Cells were sub-cultured by transferring floating cells to a new flask and trypsinizing adherent cells before sub-culturing at a ratio of 1:4. COLO 205 cells were harvested by centrifugation and counted using a hemocytometer. Cells were resuspended in PBS at a concentration of 5×10^7 cells per mL. Cells were placed on ice, and then mixed with an equal volume of Matrigel™ (BD Biosciences CB-40234). This mixture was kept on ice and injected into the left flank of mice in a volume of 0.2 mL, equivalent to 5×10^6 cells per mouse. Thirty-two (32) SCID mice were inoculated subcutaneously in the left flank with 5×10^6 COLO 205 cells. Treatment was initiated when the tumors reached a mean volume of 103.7 mm^3 (standard deviation±30 mm^3, range 17-183 mm^3). Mice were allocated to four (4) groups of eight (8) mice such that mean tumor volume in each group was within the range of 95 to 104 mm^3. […] With the exception of 5-FU (which was given IP on days 1 and 3), all compounds were given by oral gavage. […] Animal weights and conditions were recorded daily, and tumors were measured on Mondays, Wednesdays and Fridays.

LS-174T = assay: MTT assay panel; type: cell-based; settings: Homo sapiens, LS174T; LS-174T cells, 72 hours
Procedure, shortened: (§2)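 MTT-type viability; cells seeded day 1 at varying densities; AQueous One reagent added; absorbance read at OD 495.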

Colo-201 = assay: MTT assay panel; type: cell-based; settings: Homo sapiens; Colo-201 cells, 72 hours
Procedure, shortened: as §2

NCI-H28 = assay: MTT assay panel; type: cell-based; settings: Homo sapiens; NCI-H28 cells, 72 hours
Procedure, shortened: as §2

HS-Sultan = assay: MTT assay panel; type: cell-based; settings: HS-Sultan cells, 72 hours
Procedure, shortened: as §2

SHP-77 = assay: MTT assay panel; type: cell-based; settings: Homo sapiens, SHP77; SHP-77 cells, 72 hours
Procedure, shortened: as §2

MOLT4 = assay: MTT assay panel; type: cell-based; settings: Homo sapiens, MOLT-4; MOLT4 cells, 72 hours
Procedure, shortened: as §2

Farage = assay: MTT assay panel; type: cell-based; settings: Farage cells, 72 hours
Procedure, shortened: as §2

MHCC97H = assay: MTT assay panel; type: cell-based; settings: Homo sapiens; MHCC97H cells, 72 hours
Procedure, shortened: as §2

HCC-827 = assay: MTT assay panel; type: cell-based; settings: Homo sapiens, HCC827; HCC-827 cells, 72 hours
Procedure, shortened: as §2

LN18 = assay: MTT assay panel; type: cell-based; settings: Homo sapiens, LN-18; LN18 cells, 72 hours
Procedure, shortened: as §2

L3.6pl = assay: MTT assay panel; type: cell-based; settings: Homo sapiens; L3.6pl cells, 72 hours
Procedure, shortened: as §2

AML-193 = assay: MTT assay panel; type: cell-based; settings: AML-193 cells, 72 hours
Procedure, shortened: as §2

Toledo = assay: MTT assay panel; type: cell-based; settings: Homo sapiens; Toledo cells, 72 hours
Procedure, shortened: as §2

HuCCT-1 = assay: MTT assay panel; type: cell-based; settings: Homo sapiens; HuCCT-1 cells, 72 hours
Procedure, shortened: as §2

PATU-8988T = assay: MTT assay panel; type: cell-based; settings: Homo sapiens; PATU-8988T cells, 72 hours
Procedure, shortened: as §2

HCC-2935 = assay: MTT assay panel; type: cell-based; settings: Homo sapiens, HCC2935; HCC-2935 cells, 72 hours
Procedure, shortened: as §2

BL-40 = assay: MTT assay panel; type: cell-based; settings: BL-40 cells, 72 hours
Procedure, shortened: as §2

U-937 = assay: MTT assay panel; type: cell-based; settings: Homo sapiens; U-937 cells, 72 hours
Procedure, shortened: as §2

- IC50 (MM1S cells): < 100 nM
- IC50 (Colo-201): > 10000 nM
- IC50 (NCI-H28): 340 nM
- IC50 (MOLT4): 10 nM
- IC50 (HCC-827): 460 nM
- IC50 (U-937): 250 nM
SMILES: NC(=O)/C(=C/n1cnc(-c2cc(C(F)(F)F)cc(C(F)(F)F)c2)n1)c1cncnc1 [Compound 124, (E)-3-(3-(3,5-bis(trifluoromethyl)phenyl)-1H-1,2,4-triazol-1-yl)-2-(pyrimidin-5-yl)acrylamide]
- IC50 (Z138 cells): < 100 nM
- IC50 (3T3 cells): 5000 to 30000 nM
- mean tumor volume (COLO 205 xenograft; 5 or 15 mg/kg PO daily, SCID mice, compared to vehicle): mean tumor volume was reduced
- mean tumor volume compared with standard of care (COLO 205 xenograft; particularly 15 mg/kg PO daily, versus 5-FU): compared favorably
- IC50 (LS-174T): 10000 nM
- IC50 (HS-Sultan): 60 nM
- IC50 (SHP-77): 410 nM
- IC50 (Farage): 460 nM
- IC50 (MHCC97H): > 10000 nM
- IC50 (LN18): 2060 nM
- IC50 (L3.6pl): 470 nM
- IC50 (AML-193): 1930 nM
- IC50 (Toledo): 70 nM
- IC50 (HuCCT-1): 50 nM
- IC50 (PATU-8988T): 7170 nM
- IC50 (HCC-2935): 6700 nM
- IC50 (BL-40): 400 nM
